Our source for the % activity, % of control and % of inhibition values is ChEMBL document CHEMBL5465560, “Selectivity Literature for EUbOPEN Chemogenomic Library” (2024).

The target in test [1] is Histone-lysine N-methyltransferase, H3 lysine-79 specific (Homo sapiens, UniProt Q8TEK3). Put plainly: Selectivity interaction (Methyltransferase screen (Scintillation proximity assays)) EUB0000255b DOT1L. A general note: Scintillation proximity formats need no separation of bound from free tracer.
Test [2] has as its target T1, Activin receptor type-1 (Homo sapiens) (UniProt Q04771).
T1 sequence (whole entry): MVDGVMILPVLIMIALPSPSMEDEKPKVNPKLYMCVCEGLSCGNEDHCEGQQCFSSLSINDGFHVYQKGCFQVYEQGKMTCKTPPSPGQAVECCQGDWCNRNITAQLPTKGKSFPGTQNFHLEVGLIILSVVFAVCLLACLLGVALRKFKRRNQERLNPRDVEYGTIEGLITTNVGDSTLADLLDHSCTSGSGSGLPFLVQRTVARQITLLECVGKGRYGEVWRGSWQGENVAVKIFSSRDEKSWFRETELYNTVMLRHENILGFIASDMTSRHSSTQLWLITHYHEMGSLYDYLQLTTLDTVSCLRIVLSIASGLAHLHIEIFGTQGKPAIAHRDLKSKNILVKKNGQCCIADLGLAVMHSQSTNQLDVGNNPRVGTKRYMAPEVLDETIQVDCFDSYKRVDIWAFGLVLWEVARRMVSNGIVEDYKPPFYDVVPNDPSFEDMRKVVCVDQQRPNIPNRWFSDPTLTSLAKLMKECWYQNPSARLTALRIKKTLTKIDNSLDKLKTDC
Put plainly: Selectivity interaction (KinomeScan (DiscoverX)) EUB0000666a ACVR1. As to conditions: at 10 µM.

For test [3], the target named is MAP kinase-activated protein kinase 3 (Homo sapiens) (UniProt Q16644). Description: Selectivity interaction (Kinase panel (Invitrogen)) EUB0000639a MAPKAPK3. As to conditions: at 200 nM.
Chain of MAP kinase-activated protein kinase 3 (Homo sapiens) (Q16644 whole entry, looked up): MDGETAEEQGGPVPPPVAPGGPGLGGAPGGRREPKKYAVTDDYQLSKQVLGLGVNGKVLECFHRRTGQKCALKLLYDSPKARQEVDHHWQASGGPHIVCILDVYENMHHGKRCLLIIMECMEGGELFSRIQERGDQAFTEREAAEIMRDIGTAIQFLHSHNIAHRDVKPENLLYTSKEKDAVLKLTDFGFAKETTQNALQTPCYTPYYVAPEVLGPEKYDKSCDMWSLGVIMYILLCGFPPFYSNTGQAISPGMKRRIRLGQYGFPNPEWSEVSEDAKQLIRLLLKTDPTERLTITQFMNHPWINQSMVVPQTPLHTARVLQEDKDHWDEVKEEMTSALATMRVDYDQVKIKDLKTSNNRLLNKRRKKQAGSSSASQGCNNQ
Test [4] addresses Serine/threonine-protein kinase 16 (Homo sapiens, UniProt O75716). Description: Selectivity interaction (ActivX KiNativ screen (kinase selectivity in THP-1 cell lysates)) EUB0000639a STK16. Type of test: subcellular. The note with it: lysate, at 1 µM.
Test [5] deals with Ribosomal protein S6 kinase alpha-3 (Homo sapiens, UniProt P51812). Description: Selectivity interaction (ProQinase) EUB0000171b RPS6KA3.
Chain of Ribosomal protein S6 kinase alpha-3 (P51812 whole entry): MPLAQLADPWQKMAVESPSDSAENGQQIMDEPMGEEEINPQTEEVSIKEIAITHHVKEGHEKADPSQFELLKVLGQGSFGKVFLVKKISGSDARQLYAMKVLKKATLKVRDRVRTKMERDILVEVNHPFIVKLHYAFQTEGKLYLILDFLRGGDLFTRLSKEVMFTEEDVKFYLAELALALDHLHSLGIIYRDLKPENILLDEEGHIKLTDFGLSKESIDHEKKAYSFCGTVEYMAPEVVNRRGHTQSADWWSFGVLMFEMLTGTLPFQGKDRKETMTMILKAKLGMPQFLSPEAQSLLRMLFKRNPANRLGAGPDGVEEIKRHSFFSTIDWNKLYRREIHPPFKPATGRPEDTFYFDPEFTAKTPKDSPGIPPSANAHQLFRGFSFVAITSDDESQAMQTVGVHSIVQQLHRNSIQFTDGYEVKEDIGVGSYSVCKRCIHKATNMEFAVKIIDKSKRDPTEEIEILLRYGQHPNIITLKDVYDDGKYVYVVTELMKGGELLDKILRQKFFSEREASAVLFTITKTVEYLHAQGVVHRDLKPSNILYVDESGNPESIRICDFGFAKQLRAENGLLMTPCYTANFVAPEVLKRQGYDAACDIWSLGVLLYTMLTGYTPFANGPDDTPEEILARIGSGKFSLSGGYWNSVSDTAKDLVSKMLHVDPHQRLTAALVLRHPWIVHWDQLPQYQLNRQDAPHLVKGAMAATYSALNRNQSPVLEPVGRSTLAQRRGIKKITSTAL
The target in test [6] is Aurora kinase B (Homo sapiens, UniProt Q96GD4). Description: Selectivity interaction (Ambit KINOMEscan and KiNATiv profiling in Jurkat cells) EUB0000090b AURKB. The note with it: at 1 µM. Type of test: cell-based.
Chain of Aurora kinase B (Q96GD4 whole entry): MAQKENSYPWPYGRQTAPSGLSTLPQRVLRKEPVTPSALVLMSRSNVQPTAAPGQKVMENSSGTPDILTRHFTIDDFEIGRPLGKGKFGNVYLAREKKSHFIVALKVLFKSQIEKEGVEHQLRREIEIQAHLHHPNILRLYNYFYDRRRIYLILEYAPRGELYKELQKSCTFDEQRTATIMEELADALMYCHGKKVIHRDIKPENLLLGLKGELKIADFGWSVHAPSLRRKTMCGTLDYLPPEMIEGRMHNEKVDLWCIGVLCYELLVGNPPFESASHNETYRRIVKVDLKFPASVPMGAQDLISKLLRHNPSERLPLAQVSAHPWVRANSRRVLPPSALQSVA
The target in test [7] is 5'-AMP-activated protein kinase catalytic subunit alpha-1 (Homo sapiens, UniProt Q13131). Description: Selectivity interaction (Upstate Kinase Profiler service (Millipore)) EUB0000056c PRKAA1. As to conditions: at 1 µM.
Chain of 5'-AMP-activated protein kinase catalytic subunit alpha-1 (Q13131 whole entry, looked up): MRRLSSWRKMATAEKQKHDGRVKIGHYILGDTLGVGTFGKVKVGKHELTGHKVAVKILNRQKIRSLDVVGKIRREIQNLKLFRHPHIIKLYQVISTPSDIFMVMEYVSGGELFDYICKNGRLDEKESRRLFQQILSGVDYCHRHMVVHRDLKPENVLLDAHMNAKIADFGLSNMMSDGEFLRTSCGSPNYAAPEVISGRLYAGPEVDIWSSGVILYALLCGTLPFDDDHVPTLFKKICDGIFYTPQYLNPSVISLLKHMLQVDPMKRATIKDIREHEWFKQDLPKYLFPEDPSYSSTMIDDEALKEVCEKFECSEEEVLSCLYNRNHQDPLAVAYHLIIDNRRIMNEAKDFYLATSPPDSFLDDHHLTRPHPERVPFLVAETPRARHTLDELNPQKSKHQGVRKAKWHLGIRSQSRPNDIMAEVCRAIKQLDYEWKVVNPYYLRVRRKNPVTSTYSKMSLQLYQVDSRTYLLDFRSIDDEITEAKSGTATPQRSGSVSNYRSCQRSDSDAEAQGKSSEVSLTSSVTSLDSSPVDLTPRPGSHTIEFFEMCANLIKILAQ
Test [8] has as its target T2, Histone-lysine N-methyltransferase NSD3 (Homo sapiens) (UniProt Q9BZ95).
T2 sequence (whole entry): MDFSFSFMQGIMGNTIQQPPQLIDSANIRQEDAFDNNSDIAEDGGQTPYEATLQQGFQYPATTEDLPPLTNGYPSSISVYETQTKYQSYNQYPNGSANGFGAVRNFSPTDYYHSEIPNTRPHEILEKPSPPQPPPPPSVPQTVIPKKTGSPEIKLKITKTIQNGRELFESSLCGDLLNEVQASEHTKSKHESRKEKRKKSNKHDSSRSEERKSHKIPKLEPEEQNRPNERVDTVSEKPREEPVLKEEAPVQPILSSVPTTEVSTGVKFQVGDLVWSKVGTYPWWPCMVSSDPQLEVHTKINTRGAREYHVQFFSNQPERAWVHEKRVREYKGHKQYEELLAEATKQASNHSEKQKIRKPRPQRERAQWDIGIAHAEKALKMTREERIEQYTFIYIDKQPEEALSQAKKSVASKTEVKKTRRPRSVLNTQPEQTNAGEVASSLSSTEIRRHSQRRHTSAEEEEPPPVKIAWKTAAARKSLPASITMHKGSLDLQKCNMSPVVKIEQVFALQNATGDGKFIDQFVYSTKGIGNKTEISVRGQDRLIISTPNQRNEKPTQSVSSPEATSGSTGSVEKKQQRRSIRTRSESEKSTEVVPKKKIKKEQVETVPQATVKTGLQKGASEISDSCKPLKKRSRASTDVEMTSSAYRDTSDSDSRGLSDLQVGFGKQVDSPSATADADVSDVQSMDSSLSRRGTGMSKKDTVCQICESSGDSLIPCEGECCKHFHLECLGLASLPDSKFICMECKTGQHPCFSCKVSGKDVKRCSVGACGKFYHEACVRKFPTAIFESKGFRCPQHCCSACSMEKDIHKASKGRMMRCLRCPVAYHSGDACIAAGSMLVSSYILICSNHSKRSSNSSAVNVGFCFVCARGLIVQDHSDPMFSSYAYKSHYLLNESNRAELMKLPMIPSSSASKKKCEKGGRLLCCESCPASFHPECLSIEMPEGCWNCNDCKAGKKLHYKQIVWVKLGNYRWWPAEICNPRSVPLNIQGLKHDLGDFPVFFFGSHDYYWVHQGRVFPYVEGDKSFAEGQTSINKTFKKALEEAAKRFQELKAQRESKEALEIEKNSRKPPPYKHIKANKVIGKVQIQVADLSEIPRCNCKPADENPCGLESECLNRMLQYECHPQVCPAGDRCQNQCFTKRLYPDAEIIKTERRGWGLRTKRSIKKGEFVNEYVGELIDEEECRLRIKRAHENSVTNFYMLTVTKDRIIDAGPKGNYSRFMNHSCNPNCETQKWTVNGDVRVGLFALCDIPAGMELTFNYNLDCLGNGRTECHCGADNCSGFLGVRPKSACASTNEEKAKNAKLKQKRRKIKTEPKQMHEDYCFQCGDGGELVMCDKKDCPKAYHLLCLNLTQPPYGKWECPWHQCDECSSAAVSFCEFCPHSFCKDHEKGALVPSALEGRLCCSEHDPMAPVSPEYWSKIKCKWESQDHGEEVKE
Put plainly: Selectivity interaction (Transferase panel (protein, RNA, and DNA methyltransferases. and EP300 (acetyltransferase))) EUB0000270b NSD3.

In test [9] the target is T3, Serine/threonine-protein kinase 3 (Homo sapiens) (UniProt Q13188).
T3 sequence (whole entry): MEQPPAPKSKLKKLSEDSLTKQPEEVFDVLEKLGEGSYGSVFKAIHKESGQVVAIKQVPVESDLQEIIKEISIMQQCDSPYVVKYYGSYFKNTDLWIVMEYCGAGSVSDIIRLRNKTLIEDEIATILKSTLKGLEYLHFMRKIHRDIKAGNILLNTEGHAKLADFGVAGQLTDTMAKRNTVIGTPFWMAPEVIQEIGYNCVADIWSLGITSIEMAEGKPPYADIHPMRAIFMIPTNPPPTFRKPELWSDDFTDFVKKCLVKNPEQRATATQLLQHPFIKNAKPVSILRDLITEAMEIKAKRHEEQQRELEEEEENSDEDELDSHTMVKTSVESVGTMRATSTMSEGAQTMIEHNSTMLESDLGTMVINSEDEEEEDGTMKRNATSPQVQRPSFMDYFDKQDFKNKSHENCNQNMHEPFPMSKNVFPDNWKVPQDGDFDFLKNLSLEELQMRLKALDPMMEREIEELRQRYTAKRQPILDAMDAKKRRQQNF
Put plainly: Selectivity interaction (KinomeScan (DiscoverX)) EUB0000092b STK3. The note with it: at 10 µM.

A value given as a limit tells only on which side of the number the result lay.

Chain of Histone-lysine N-methyltransferase, H3 lysine-79 specific (Q8TEK3 whole entry, looked up): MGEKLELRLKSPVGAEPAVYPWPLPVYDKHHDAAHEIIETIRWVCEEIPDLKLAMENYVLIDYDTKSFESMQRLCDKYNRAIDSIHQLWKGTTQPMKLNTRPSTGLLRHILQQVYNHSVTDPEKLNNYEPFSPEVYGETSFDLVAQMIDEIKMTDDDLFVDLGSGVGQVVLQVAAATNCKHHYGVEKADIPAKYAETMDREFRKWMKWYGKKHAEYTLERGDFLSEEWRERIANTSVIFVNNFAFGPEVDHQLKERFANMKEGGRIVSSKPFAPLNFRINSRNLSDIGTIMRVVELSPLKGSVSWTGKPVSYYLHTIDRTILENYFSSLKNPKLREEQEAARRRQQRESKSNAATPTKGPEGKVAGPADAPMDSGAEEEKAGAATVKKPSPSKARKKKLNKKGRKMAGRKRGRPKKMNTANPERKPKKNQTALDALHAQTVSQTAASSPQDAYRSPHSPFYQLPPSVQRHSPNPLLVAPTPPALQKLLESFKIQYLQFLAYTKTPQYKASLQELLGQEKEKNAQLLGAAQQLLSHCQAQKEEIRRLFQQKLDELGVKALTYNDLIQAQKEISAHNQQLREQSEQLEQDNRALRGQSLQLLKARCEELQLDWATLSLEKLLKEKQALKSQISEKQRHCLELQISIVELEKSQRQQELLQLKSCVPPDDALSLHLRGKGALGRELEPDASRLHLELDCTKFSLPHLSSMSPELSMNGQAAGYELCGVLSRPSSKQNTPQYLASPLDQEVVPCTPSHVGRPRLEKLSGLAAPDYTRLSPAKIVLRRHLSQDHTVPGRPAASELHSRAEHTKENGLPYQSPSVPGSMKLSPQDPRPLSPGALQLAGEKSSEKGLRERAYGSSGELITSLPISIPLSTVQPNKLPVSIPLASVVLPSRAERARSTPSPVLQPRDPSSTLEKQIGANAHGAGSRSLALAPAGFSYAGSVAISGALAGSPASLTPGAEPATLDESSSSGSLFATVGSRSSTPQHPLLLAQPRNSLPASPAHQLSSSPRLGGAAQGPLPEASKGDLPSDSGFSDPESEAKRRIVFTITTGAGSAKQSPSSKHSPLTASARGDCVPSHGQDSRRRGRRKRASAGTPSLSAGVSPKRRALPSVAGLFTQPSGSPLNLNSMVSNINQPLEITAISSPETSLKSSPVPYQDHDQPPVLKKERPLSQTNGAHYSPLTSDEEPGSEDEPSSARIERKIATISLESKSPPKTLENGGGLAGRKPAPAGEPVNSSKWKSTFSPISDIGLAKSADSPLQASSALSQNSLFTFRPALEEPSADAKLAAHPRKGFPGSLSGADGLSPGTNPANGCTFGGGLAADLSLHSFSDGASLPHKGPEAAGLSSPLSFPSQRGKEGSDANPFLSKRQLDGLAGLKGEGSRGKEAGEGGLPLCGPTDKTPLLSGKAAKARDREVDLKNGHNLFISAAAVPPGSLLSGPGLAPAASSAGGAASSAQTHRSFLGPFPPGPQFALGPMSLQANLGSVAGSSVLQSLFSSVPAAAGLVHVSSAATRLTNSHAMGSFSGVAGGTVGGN
Chain of Serine/threonine-protein kinase 16 (O75716 whole entry): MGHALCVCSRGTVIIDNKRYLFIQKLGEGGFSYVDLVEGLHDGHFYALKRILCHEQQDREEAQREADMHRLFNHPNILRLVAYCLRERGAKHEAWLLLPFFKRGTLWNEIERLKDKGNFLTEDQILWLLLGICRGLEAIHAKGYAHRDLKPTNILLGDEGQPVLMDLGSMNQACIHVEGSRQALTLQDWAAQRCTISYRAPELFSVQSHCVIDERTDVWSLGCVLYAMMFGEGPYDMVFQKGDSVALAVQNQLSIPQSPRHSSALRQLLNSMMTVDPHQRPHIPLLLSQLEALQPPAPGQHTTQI

Take `COCCN1CCC(c2cc(CN(C)C(=O)c3cccc(Oc4ccccc4)c3)ccn2)CC1`: the % activity in test [1] (at 1 µM) is more than 95%; in test [1] (at 10 µM) it was more than 90%. In the case of `O=C(NOC[C@H](O)CO)c1ccc(F)c(F)c1Nc1ccc(I)cc1F`, in [2], the % of control stood at 76%. Regarding `CC[C@@H]1[C@H](F)C(=O)N[C@@H]1COc1nccc2cc(C(N)=O)c(OC)cc12` [ZIMLOVISERTIB], the % of inhibition in [3] came out at 3.83%; in test [4], 58.6%. On to `C=CC(=O)Nc1cccc(C(=O)Nc2ccc(Nc3cc(-c4[nH]c(SC)nc4C)ccn3)cc2)c1`, for which the % of control in [5] (at 1 µM) came out at 81%; in [5] (at 5 µM), 58%.

In test [6], `CN(C)C/C=C/C(=O)Nc1ccc(C(=O)N2CCCC(Nc3ncc(Cl)c(-c4c[nH]c5ccccc45)n3)C2)cc1` (configuration not stated) displayed a % of control of 100%. Consider `Cc1ccc(-c2ccc3c(ccc4sc5c(c43)NC[C@@H](C)NC5=O)n2)cn1`, for which, in test [7], the % of inhibition amounted to 77%.

Turning to `Cc1cc(CN)cc(C)c1-c1ncn(C)c1-c1cncn1C`, the results for the % activity in test [8] (at 1 µM) and in [8] (at 10 µM) were more than 90% and more than 80%, respectively. As to `CCC(=O)N1CCN(c2ccc(-n3c(=O)ccc4cnc5ccc(-c6cnc7ccccc7c6)cc5c43)cc2C(F)(F)F)CC1`, the % of control in [9] was determined as 24%.
